Test results taken from article PMC12501849, “Design, synthesis and evaluation of arylpurine-based sinefungin mimetics as zika virus methyltransferase inhibitors” (RSC Advances, 2025).
Entries after “also recorded” stand apart in the source; their conditions may differ.

Experiments:
ZIKV MTase = target: T1, ZIKV MTase (Zika virus, UniProt A0A024B7W1); assay: Filter binding assay (FBA), ZIKV 2′-O-MTase activity; format: biochemical; conditions: for inhibition at 50 µM: 2′-O-MTase activity, compound at 50 μM, read-out: Percentage of inhibition of ZIKV MTase; for Effect on 2′-O-MTase activity of ZIKV (in words): tested at 50 μM
T1 construct: the ZIKV NS5 MTase (aa 4-278) domain were synthesized (Genscript); His6 (N); made in house; host or cells: Escherichia coli T7 Express Iq
T1 sequence (A0A024B7W1 2524-2798): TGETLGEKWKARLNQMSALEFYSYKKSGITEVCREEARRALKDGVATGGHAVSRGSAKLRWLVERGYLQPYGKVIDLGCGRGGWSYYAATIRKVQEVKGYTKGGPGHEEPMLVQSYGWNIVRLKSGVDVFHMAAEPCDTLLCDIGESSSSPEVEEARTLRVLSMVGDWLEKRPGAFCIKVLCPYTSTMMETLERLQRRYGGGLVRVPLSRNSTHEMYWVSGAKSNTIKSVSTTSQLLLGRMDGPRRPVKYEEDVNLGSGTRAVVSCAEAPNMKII
Description: (§1) The synthesized arylpurines were evaluated for their inhibitory activity against the 2′-O-MTase activity of ZIKV and DENV3 MTases by quantification of [^3H]-methyl transfer from the [^3H]-SAM on short synthetic capped RNA (GpppAC4), by using a filter binding assay (FBA).[13,33] The universal methyltransferase inhibitor sinefungin was included as a positive control (Table 1), whose IC50 value against ZIKV MTase has already been reported using a similar assay.[13] We assessed MTase inhibition by testing the synthesized compounds at a concentration of 50 μM.
(§2) Proteins were produced and purified as previously described.[13] Briefly, the coding sequence of ZIKV NS5 (aa 4-903) and the ZIKV NS5 MTase (aa 4-278) domain were synthesized (Genscript) based on the sequence of the ZIKV strain H/PF/2013 (GenBank accession no. KJ776791.2) and then cloned into a pQE30 (Qiagen) plasmid with an N-terminal His6 tag. The MTase domains (aa 4-278 and aa 1-264) were produced in Escherichia coli T7 Express Iq (New England BioLabs). Cells were grown in Terrific Broth at 37 °C until the optical density at 600 nm (OD600) reached 0.6. Protein expression was then induced by 0.5 mM IPTG (isopropyl-β-D-thiogalactopyranoside) at 17 °C overnight. Bacteria were harvested by centrifugation. The bacterial pellets from a 2-liter bacterial culture were resuspended in 100 ml lysis buffer (50 mM Tris–HCl [pH 8], 300 mM NaCl, 5% glycerol, 0.1% Triton, 10 μg per ml DNase I, 2 tablets of EDTA-free antiprotease cocktail [Roche], 0.25 mg per ml lysozyme). After 30 min of incubation at 4 °C, cells were sonicated and clarified by centrifugation prior to immobilized metal affinity chromatography (IMAC) purification on a 5-mL His prep column (GE Healthcare), with elution in 50 mM Tris–HCl, 300 mM NaCl, and 250 mM imidazole (pH 8.0). The eluted protein was then loaded on a 16/60 Superdex 200 (GE Healthcare) equilibrated in a mixture of 10 mM HEPES, 500 mM NaCl, glycerol 5%, and 1 mM dithiothreitol (DTT [pH 7.5]).
(§3) The FBA MTase assay was carried out in a reaction mixture [40 mM Tris–HCl (pH 8.0), 1 mM DTT, 1.9 μM SAM, and 0.1 μM ^3H-SAM (PerkinElmer)] in the presence of 0.7 μM GpppAC4 synthetic RNA and the MTase (500 nM), according to the method previously described.[39] Briefly, the MTase was first mixed with the compound suspended in DMSO (5% final DMSO) before the addition of RNA substrate and SAM and then incubated at 30 °C. Reactions mixtures were stopped after 30 min by their 10-fold dilution in ice-cold water. Samples were transferred to diethylaminoethyl (DEAE) filtermat (PerkinElmer) using a Filtermat Harvester (Packard Instruments). The RNA-retaining mats were washed twice with 10 mM ammonium formate pH 8.0, twice with water and once with ethanol. They were soaked with scintillation fluid (PerkinElmer), and ^3H-methyl transfer to the RNA substrates was determined using a Wallac MicroBeta TriLux liquid scintillation counter (PerkinElmer).

DENV3 MTase = target: T2, DENV3 MTase (Dengue virus type 3, UniProt P27915); assay: Filter binding assay (FBA), DENV3 2′-O-MTase activity; format: biochemical; conditions: for inhibition at 50 µM: 2′-O-MTase activity, compound at 50 μM, read-out: Percentage of inhibition of DENV3 MTase; for Effect on 2′-O-MTase activity of DENV3 (in words): tested at 50 μM
T2 construct: the MTase activity is located at the N-terminal of the viral NS5 protein; made in house
T2 sequence (P27915 2492-2753): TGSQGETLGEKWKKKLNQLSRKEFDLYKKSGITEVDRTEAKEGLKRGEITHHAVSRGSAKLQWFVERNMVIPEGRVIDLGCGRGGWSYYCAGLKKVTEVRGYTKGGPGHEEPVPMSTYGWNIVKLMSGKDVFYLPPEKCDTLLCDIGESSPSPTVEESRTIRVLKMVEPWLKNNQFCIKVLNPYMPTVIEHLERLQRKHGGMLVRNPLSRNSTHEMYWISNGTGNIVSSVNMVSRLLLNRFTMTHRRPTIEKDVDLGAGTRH
Description: as §1, §2, §3

ZIKV = assay: Antiviral assay against ZIKV in VeroE6 cells (CPE, MTS readout); format: cell-based, zika virus; conditions: for EC50: Zika virus, Vero C1008, VeroE6 cells, concentration that protects 50% of the cells from virus-induced cytopathic effect
Description: (§4) These compounds were next evaluated for their antiviral effect on ZIKV replication in Vero E6 and SH-SY5Y cells. 7-Deaza-2′-C-methyladenosine (7DMA), a viral polymerase inhibitor,[35] was included as a positive control.
(§5) Assessment of the antiviral activity against ZIKV in VeroE6 cells (African green monkey kidney cells; Vero 76, clone E6; ATCC: Cat# CRL-1586) was done as previously described.[35] The antiviral assays in the neuroblastoma SH-SY5Y cells (CRL-2266; ATCC) were conducted as follows: SH-SY5Y cells were seeded in assay medium (MEM supplemented with 2% fetal bovine serum, 2 mM L-glutamine and 0.075% sodium bicarbonate; all from Thermo Fisher Scientific) at a density of 15 000 cells/well in 96-well plates. Cells were incubated overnight at 37 °C and 5% CO2. The next day, a serial dilution of the compounds was added to the cells, followed by inoculation of the cells with ZIKV MR766 (MOI = 0.01). Following a 7-day incubation at 37 °C and 5% CO2, ZIKV-induced cytopathic effect was determined by means of the MTS readout method, analogous to the assay with the VeroE6 cells.[35] The 50% effective concentration (the compound concentration that is required to inhibit virus-induced CPE by 50%; EC50) and the 50% cytotoxic concentration (i.e. the compound concentration that is required to inhibit the cell growth by 50%; CC50) was determined using logarithmic interpolation.

[1] = Cytotoxicity in non-infected VeroE6 cells; format: cell-based, African green monkey; conditions: African green monkey, non-infected, 50% cytotoxic concentration
Description: as §5

ZIKV MR766 = assay: Antiviral assay against ZIKV in SH-SY5Y cells (CPE, MTS readout); format: cell-based, zika virus; conditions: Zika virus, 168 h; SH-SY5Y cells; ZIKV MR766, MOI 0.01, 7-day incubation
Description: as §4
Besides the standard assays in VeroE6 cells, the compounds were also tested in SH-SY5Y cells. […] Thus, they function as a relevant neuronal cell-based model of ZIKV infection.[38]
as §5

[2] = Cytotoxicity in non-infected SH-SY5Y cells; format: cell-based; conditions: human, SH-SY5Y neuroblastoma cells, 50% cytotoxic concentration
Description: as §5

[3] = Stability towards spontaneous cyclization in PBS : DMSO followed by HPLC; format: physicochemical; conditions: PBS : DMSO (95 : 5), HPLC over a 24-hour period
Description: Then, compound 28 was treated with TFA at 70 °C to remove the tert-butyl ester and the p-methoxybenzyl group. Analysis of the reaction by HPLC/MS after 1 h indicated a mixture of two compounds with m/z = 695 and m/z = 575, that might correspond to cyclized products with and without the p-methoxybenzyl group at position 6 (see Fig. S3 at the SI). […] In exploring alternative methods for removing the PMB group, we came across a report by Sako et al., which described the oxidative debenzylation of 6-N-benzyladenosines under neutral pH conditions.[32] Since our compounds are more lipophilic than the nucleosides described by […], we changed the PBS : CH3CN ratio from 2 : 1, as described, to 1 : 1 to favor the solubility of our compounds. Additionally, we used microwave irradiation to shorten the reaction times. Thus, treatment of 27 with […] in PBS : CH3CN (1 : 1) at 80 °C for 45 min under MW irradiation led to the removal of the p-methoxybenzyl group, as detected by HPLC/MS. Further treatment of the reaction product with piperidine afforded 29 (25% yield over the 2 steps). A similar reaction sequence applied to 28 led to compound 30 (21% yield). […] Finally, treatment of 29 and 30 with TFA in DCM at rt afforded compounds 31 and 32 in 73% and 62% yields, respectively. To rule out the possibility of spontaneous cyclization following removal of both protecting groups from the amino acid, compounds 21, 31 and 32 were dissolved in a PBS : DMSO (95 : 5) mixture.

SMILES | inhibition at 50 µM (ZIKV MTase) [%] | Effect on 2′-O-MTase activity of ZIKV (in words) (ZIKV MTase) | inhibition at 50 µM (DENV3 MTase) [%] | Effect on 2′-O-MTase activity of DENV3 (in words) (DENV3 MTase) | EC50 (ZIKV) [µM] | CC50 [1] [µM] | EC50 (ZIKV MR766) [µM] | CC50 at 7 days [2] [µM] | Stability (no spontaneous cyclization) [3] | Antiviral activity against ZIKV (in words) (ZIKV; cell-based assay)
Cc1ncnc2c1ccn2-c1cccc(NC(=O)C[C@H](N)C(=O)O)c1 [Compound 21, N ^4-(3-(4-Methyl-7H-pyrrolo[2,3-d]pyrimidin-7-yl)phenyl)-L-asparagine] | 0 | no effect | 0 | no effect | > 100 | > 100 | > 100 | > 100 | remained intact | –
C[C@@]1(O)[C@H](O)[C@@H](CO)O[C@H]1n1ccc2c(N)ncnc21 [Compound 7DMA, 7-Deaza-2′-C-methyladenosine, reference compound] | – | – | – | – | 9 ± 0.2 | > 200 | 33.7 ± 5.1 | > 50 | – | –
CC(C)(C)OC(=O)[C@@H](N)CC(=O)Nc1cccc(-n2cnc3c(N)ncnc32)c1 [Compound 29, tert-Butyl N^4-(3-(6-amino-9H-purin-9-yl)phenyl)-L-asparaginate] | ~20 | inhibited; also recorded: some inhibition | ~20 | some inhibition | > 100 | > 100 | > 100 | > 100 | – | no antiviral activity
COc1ccc(NC(=O)C[C@H](N)C(=O)OC(C)(C)C)cc1-n1cnc2c(N)ncnc21 [Compound 30, tert-Butyl N^4-(3-(6-amino-9H-purin-9-yl)-4-methoxyphenyl)-L-asparaginate] | 0 | no effect | 0 | no effect | > 100 | > 100 | > 100 | > 100 | – | –
Cc1ncnc2c1ccn2-c1cccc(N(CC[C@H](N)C(=O)O)CCC(C)(C)C)c1 [Compound 14, (S)-2-Amino-4-((3,3-dimethylbutyl)(3-(4-methyl-7H-pyrrolo[2,3-d]pyrimidin-7-yl)phenyl)amino)butanoic acid] | 0 | no effect | 0 | no effect | > 100 | > 100 | > 100 | > 100 | – | –
Cc1ncnc2c1ccn2-c1cccc(N(CC[C@H](NC(=O)OC(C)(C)C)C(N)=O)CCC(C)(C)C)c1 [Compound 17, tert-Butyl (S)-(1-amino-4-((3,3-dimethylbutyl)(3-(4-methyl-7H-pyrrolo[2,3-d]pyrimidin-7-yl)phenyl)amino)-1-oxobutan-2-yl)carbamate] | 11.1 | modest inhibition | 7.2 | modest inhibition | > 100 | 22.8 ± 0.5 | > 100 | 7 | – | –
Cc1ncnc2c1ccn2-c1cccc(NC(=O)C[C@H](N)C(=O)OC(C)(C)C)c1 [Compound 20, tert-Butyl N^4-(3-(4-methyl-7H-pyrrolo[2,3-d]pyrimidin-7-yl)phenyl)-L-asparaginate] | 0 | no effect | 0 | no effect | > 100 | > 33 | > 100 | > 100 | – | –
CC(C)(C)CCN(CC[C@H](N)C(=O)O)c1cccc(-n2cnc3c(N)ncnc32)c1 [Compound 10, (S)-2-Amino-4-((3-(6-amino-9H-purin-9-yl)phenyl)(3,3-dimethylbutyl)amino)butanoic acid] | 0 | no effect | 0 | no effect | > 100 | > 100 | > 100 | > 100 | – | –
